Reference: ChEMBL document CHEMBL3046407, “Toxicity of monoterpenes against larvae and adults of Colorado potato beetle, Leptinotarsa decemlineata Say (Coleoptera: Chrysomelidae)” (2007)

Legend:
Type in all cases: functional
[1] = test system: Leptinotarsa decemlineata; assay: Insecticidal activity against second-instar larval stage of Leptinotarsa decemlineata infested potato leaves assessed as mortality at 20 ul after 96 hr (reference value: […] +/- 3.3%)
[2] = test system: Leptinotarsa decemlineata; assay: Insecticidal activity against second-instar larval stage of Leptinotarsa decemlineata infested potato leaves assessed as mortality at 20 ul after 48 hr (reference value: […] +/- 3.3%)
[3] = test system: Leptinotarsa decemlineata; assay: Insecticidal activity against second-instar larval stage of Leptinotarsa decemlineata infested potato leaves assessed as mortality at 20 ul after 24 hr (reference value: […] +/- 3.3%)
[4] = test system: Leptinotarsa decemlineata; assay: Insecticidal activity against second-instar larval stage of Leptinotarsa decemlineata infested potato leaves assessed as mortality at 10 ul after 12 hr relative to control
[5] = test system: Leptinotarsa decemlineata; assay: Insecticidal activity against adult Leptinotarsa decemlineata infested potato leaves assessed as mortality at 20 ul after 96 hr relative to control
[6] = test system: Leptinotarsa decemlineata; assay: Insecticidal activity against adult Leptinotarsa decemlineata infested potato leaves assessed as mortality at 20 ul after 48 hr relative to control
[7] = test system: Leptinotarsa decemlineata; assay: Insecticidal activity against adult Leptinotarsa decemlineata infested potato leaves assessed as mortality at 20 ul after 24 hr relative to control
[8] = test system: Leptinotarsa decemlineata; assay: Insecticidal activity against adult Leptinotarsa decemlineata infested potato leaves assessed as mortality at 20 ul after 12 hr relative to control
[9] = test system: Leptinotarsa decemlineata; assay: Insecticidal activity against adult Leptinotarsa decemlineata infested potato leaves assessed as mortality at 10 ul after 96 hr relative to control
[10] = test system: Leptinotarsa decemlineata; assay: Insecticidal activity against adult Leptinotarsa decemlineata infested potato leaves assessed as mortality at 10 ul after 48 hr relative to control
[11] = test system: Leptinotarsa decemlineata; assay: Insecticidal activity against adult Leptinotarsa decemlineata infested potato leaves assessed as mortality at 10 ul after 24 hr relative to control
[12] = test system: Leptinotarsa decemlineata; assay: Insecticidal activity against adult Leptinotarsa decemlineata infested potato leaves assessed as mortality at 10 ul after 12 hr relative to control
[13] = test system: Leptinotarsa decemlineata; assay: Insecticidal activity against second-instar larval stage of Leptinotarsa decemlineata infested potato leaves assessed as mortality at 20 ul after 12 hr relative to control
[14] = test system: Leptinotarsa decemlineata; assay: Insecticidal activity against second-instar larval stage of Leptinotarsa decemlineata infested potato leaves assessed as mortality at 10 ul after 96 hr (reference value: […] +/- 3.3%)
[15] = test system: Leptinotarsa decemlineata; assay: Insecticidal activity against second-instar larval stage of Leptinotarsa decemlineata infested potato leaves assessed as mortality at 10 ul after 48 hr (reference value: […] +/- 3.3%)
[16] = test system: Leptinotarsa decemlineata; assay: Insecticidal activity against second-instar larval stage of Leptinotarsa decemlineata infested potato leaves assessed as mortality at 10 ul after 24 hr (reference value: […] +/- 3.3%)
[17] = test system: Leptinotarsa decemlineata; assay: Insecticidal activity against first-instar larval stage of Leptinotarsa decemlineata infested potato leaves assessed as mortality at 20 ul after 96 hr relative to control
[18] = test system: Leptinotarsa decemlineata; assay: Insecticidal activity against first-instar larval stage of Leptinotarsa decemlineata infested potato leaves assessed as mortality at 20 ul after 48 hr relative to control
[19] = test system: Leptinotarsa decemlineata; assay: Insecticidal activity against first-instar larval stage of Leptinotarsa decemlineata infested potato leaves assessed as mortality at 20 ul after 24 hr relative to control
[20] = test system: Leptinotarsa decemlineata; assay: Insecticidal activity against first-instar larval stage of Leptinotarsa decemlineata infested potato leaves assessed as mortality at 20 ul after 12 hr relative to control
[21] = test system: Leptinotarsa decemlineata; assay: Insecticidal activity against first-instar larval stage of Leptinotarsa decemlineata infested potato leaves assessed as mortality at 10 ul after 96 hr relative to control
[22] = test system: Leptinotarsa decemlineata; assay: Insecticidal activity against first-instar larval stage of Leptinotarsa decemlineata infested potato leaves assessed as mortality at 10 ul after 48 hr relative to control
[23] = test system: Leptinotarsa decemlineata; assay: Insecticidal activity against first-instar larval stage of Leptinotarsa decemlineata infested potato leaves assessed as mortality at 10 ul after 12 hr relative to control
[24] = test system: Leptinotarsa decemlineata; assay: Insecticidal activity against first-instar larval stage of Leptinotarsa decemlineata infested potato leaves assessed as mortality at 10 ul after 24 hr relative to control
[25] = test system: Leptinotarsa decemlineata; assay: Insecticidal activity against third-instar larval stage of Leptinotarsa decemlineata infested potato leaves assessed as mortality at 20 ul after 96 hr (reference value: […] +/- 3.3%)
[26] = test system: Leptinotarsa decemlineata; assay: Insecticidal activity against third-instar larval stage of Leptinotarsa decemlineata infested potato leaves assessed as mortality at 20 ul after 48 hr (reference value: […] +/- 3.3%)
[27] = test system: Leptinotarsa decemlineata; assay: Insecticidal activity against third-instar larval stage of Leptinotarsa decemlineata infested potato leaves assessed as mortality at 20 ul after 24 hr relative to control
[28] = test system: Leptinotarsa decemlineata; assay: Insecticidal activity against third-instar larval stage of Leptinotarsa decemlineata infested potato leaves assessed as mortality at 20 ul after 12 hr relative to control
[29] = test system: Leptinotarsa decemlineata; assay: Insecticidal activity against third-instar larval stage of Leptinotarsa decemlineata infested potato leaves assessed as mortality at 10 ul after 96 hr (reference value: […] +/- 3.3%)
[30] = test system: Leptinotarsa decemlineata; assay: Insecticidal activity against third-instar larval stage of Leptinotarsa decemlineata infested potato leaves assessed as mortality at 10 ul after 48 hr (reference value: […] +/- 3.3%)
[31] = test system: Leptinotarsa decemlineata; assay: Insecticidal activity against third-instar larval stage of Leptinotarsa decemlineata infested potato leaves assessed as mortality at 10 ul after 24 hr relative to control
[32] = test system: Leptinotarsa decemlineata; assay: Insecticidal activity against third-instar larval stage of Leptinotarsa decemlineata infested potato leaves assessed as mortality at 10 ul after 12 hr relative to control

Row | Structure (SMILES) | mortality [1] | mortality [2] | mortality [3] | mortality [4] | mortality [5] | mortality [6] | mortality [8] | mortality [9] | mortality [10] | mortality [11] | mortality [12] | mortality [13] | mortality [14] | mortality [15] | mortality [16] | mortality [17] | mortality [18] | mortality [19] | mortality [20] | mortality [21] | other results
1 | C=C1CCC2CC1C2(C)C (stereo not drawn) [BETA-PINENE] | 86.7% | 80% | 70% | 56.7% | 100% | 100% | 80% | 100% | 100% | 100% | 100% | 20% | 100% | 90% | 76.7% | 100% | 100% | 100% | 66.7% | 100% | mortality [7]: 96.7%; mortality [22]: 96.7%; mortality [23]: 43.3%; mortality [24]: 66.7%; mortality [25]: 100%; mortality [26]: 100%; mortality [27]: 100%; mortality [28]: 100%; mortality [29]: 100%; mortality [30]: 100%; mortality [31]: 83.3%; mortality [32]: 80%
2 | CC1=CCC2CC1C2(C)C (stereo not drawn) [ALPHA-PINENE] | 86.7% | 80% | 70% | 26.7% | 100% | 100% | 96.7% | 100% | 100% | 100% | 100% | 20% | 66.7% | 63.3% | 50% | 66.7% | 56.7% | 43.3% | 13.3% | 66.7% | mortality [7]: 100%; mortality [22]: 63.3%; mortality [23]: 26.7%; mortality [24]: 50%; mortality [25]: 36.7%; mortality [26]: 30%; mortality [27]: 16.7%; mortality [28]: 13.3%; mortality [29]: 6.7%; mortality [31]: 3.3%; mortality [32]: 3.3%
3 | C=CC(=C)CCC=C(C)C [MYRCENE] | 100% | 100% | 90% | 56.7% | 100% | 96.7% | 73.3% | 100% | 100% | 93.3% | 46.7% | 73.3% | 93.3% | 93.3% | 93.3% | 100% | 100% | 90% | 36.7% | 93.3% | mortality [7]: 90%; mortality [22]: 93.3%; mortality [23]: 20%; mortality [24]: 80%; mortality [25]: 76.7%; mortality [26]: 73.3%; mortality [27]: 70%; mortality [28]: 36.7%; mortality [29]: 60%; mortality [30]: 56.7%; mortality [31]: 53.3%; mortality [32]: 26.7%
4 | CC(C)=CCC[C@@H](C)CC=O [CITRONELLAL] | 93.3% | 93.3% | 80% | 20% | 86.7% | 80% | 16.7% | 100% | 100% | 90% | 6.7% | 23.3% | 80% | 76.7% | 53.3% | 100% | 90% | 76.7% | 33.3% | 86.7% | mortality [22]: 76.7%; mortality [23]: 6.7%; mortality [24]: 43.3%; mortality [25]: 33.3%; mortality [26]: 26.7%; mortality [27]: 20%; mortality [28]: 10%; mortality [29]: 26.7%; mortality [30]: 20%; mortality [31]: 20%; mortality [32]: 20%
5 | CC1=CCC(O)(C(C)C)CC1 (stereo unspecified) [TERPINEOL] | 100% | 100% | 100% | 33.3% | 100% | 80% | 16.7% | 100% | 93.3% | 76.7% | 3.3% | 60% | 100% | 100% | 83.3% | 100% | 100% | 86.7% | 40% | 100% | mortality [7]: 43.3%; mortality [22]: 73.3%; mortality [23]: 0%; mortality [24]: 40%; mortality [25]: 40%; mortality [26]: 26.7%; mortality [27]: 23.3%; mortality [28]: 3.3%; mortality [29]: 23.3%; mortality [30]: 23.3%; mortality [31]: 16.7%; mortality [32]: 6.7%
6 | CC(=O)OC/C=C(\C)CCC=C(C)C [GERANYL ACETATE] | 23.3% | 23.3% | 10% | 3.3% | 26.7% | 16.7% | 3.3% | 10% | 10% | 3.3% | 0% | 6.7% | 20% | 20% | 3.3% | 16.7% | 10% | 6.7% | 0% | 6.7% | mortality [7]: 10%; mortality [22]: 0%; mortality [23]: 0%; mortality [24]: 0%; mortality [25]: 16.7%; mortality [26]: 16.7%; mortality [27]: 16.7%; mortality [28]: 6.7%; mortality [29]: 13.3%; mortality [30]: 13.3%; mortality [31]: 10%; mortality [32]: 6.7%
7 | C=CC(C)(CCC=C(C)C)OC(C)=O (stereo unspecified) [LINALYL ACETATE] | 93.3% | 93.3% | 63.3% | 20% | 70% | 63.3% | 10% | 23.3% | 16.7% | 0% | 0% | 30% | 86.7% | 80% | 36.7% | 69.3% | 93.3% | 63.3% | 26.7% | 86.7% | mortality [7]: 23.3%; mortality [22]: 70%; mortality [23]: 16.7%; mortality [24]: 30%; mortality [25]: 83.3%; mortality [26]: 76.7%; mortality [27]: 73.3%; mortality [28]: 30%; mortality [29]: 33.3%; mortality [31]: 30%; mortality [32]: 23.3%
